Legend:
[1] = Antitubulin activity against bovine brain tubulin polymerization preincubated with compound followed by GTP addition by turbidimetry-based spectrophotometric method; design: species or system Bos taurus
B16-F10 = assay: Antiproliferative activity against mouse B16-F10 cells incubated for 24 hrs by MTT assay; type: functional, cell-based; conditions: B16-F10, 24 h
A549 [2] = assay: Antiproliferative activity against human A549 cells assessed as inhibition of cell proliferation incubated for 24 hrs by CCK-8 assay; type: functional, cell-based; conditions: A549, 24 h
Ca9-22 [3] = assay: Cytotoxicity against human Ca9-22 cells assessed as reduction in cell viability incubated for 24 hrs by MTT assay; type: functional, cell-based; conditions: Ca9-22, 24 h
MCF7 [4] = assay: Antiproliferative activity against human MCF7 cells assessed as inhibition of cell proliferation incubated for 20 hrs by MTT assay; type: functional, cell-based; conditions: MCF7, 20 h
HeLa [5] = assay: Antiproliferative activity against human HeLa cells assessed as inhibition of cell proliferation incubated for 20 hrs by MTT assay; type: functional, cell-based
A549 [6] = assay: Anticancer activity against human A549 cells assessed as inhibition of cell proliferation incubated for 48 hrs by MTT assay; type: functional, cell-based; conditions: A549, 48 h
HepG2 = assay: Antiproliferative activity against human HepG2 cells incubated for 24 hrs by MTT assay; type: functional, cell-based; conditions: HepG2, 24 h
A549 [7] = assay: Antiproliferative activity against human A549 cells assessed as inhibition of cell proliferation incubated for 24 hrs by MTT assay; type: functional, cell-based; conditions: A549, 24 h
HeLa [8] = assay: Antiproliferative activity against human HeLa cells assessed as inhibition of cell proliferation incubated for 24 hrs by MTT assay; type: functional, cell-based
MCF7 [9] = assay: Antiproliferative activity against human MCF7 cells assessed as inhibition of cell proliferation incubated for 24 hrs by MTT assay; type: functional, cell-based; conditions: MCF7, 24 h
BT-474 = assay: Antiproliferative activity against human BT-474 cells assessed as inhibition of cell growth incubated for 24 hrs in presence of foetal bovine serum by MTT assay; type: functional, cell-based; conditions: BT-474, 24 h
MG-63 = assay: Anticancer activity against human MG-63 cells assessed as inhibition of cell proliferation incubated for 48 hrs by MTT assay; type: functional, cell-based; conditions: MG-63, 48 h
Ca9-22 [10] = assay: Cytotoxicity against human Ca9-22 cells assessed as reduction in cell viability incubated for 48 hrs by MTT assay; type: functional, cell-based; conditions: Ca9-22, 48 h
HCT-15 = assay: Anticancer activity against human HCT-15 cells incubated for 72 hrs by MTT assay; type: functional, cell-based; conditions: HCT-15, 72 h
MGC-803 = assay: Anticancer activity against human MGC-803 cells incubated for 72 hrs by MTT assay; type: functional, cell-based; conditions: MGC-803, 72 h

For CC(C)=CC[C@@H](O)C1=CC(=O)c2c(O)ccc(O)c2C1=O [SHIKONIN], the IC50 [1] was 16.8 µM, the IC50 (B16-F10) was 17.9 µM and the IC50 (A549 [2]) was 7.73 µM. The IC50 (Ca9-22 [3]) was 13.6 µM, the IC50 (MCF7 [4]) was 1030 nM and the IC50 (HeLa [5]) was 3.11 µM. The IC50 (A549 [6]) was 5.06 µM, the IC50 (HepG2) was 2730 nM and the IC50 (A549 [7]) was 3.13 µM. For the same molecule, the IC50 (HeLa [8]) was 5.75 µM, the IC50 (MCF7 [9]) was 4.99 µM and the IC50 (BT-474) was 5.74 µM. For the same molecule, the IC50 (MG-63) was 5.67 µM, the IC50 (Ca9-22 [10]) was 12.8 µM and the IC50 (HCT-15) was 940 nM. It also gave an IC50 (MGC-803) of 1280 nM.

From ChEMBL document CHEMBL5137008, “Recent advances of antitumor shikonin/alkannin derivatives: A comprehensive overview focusing on structural classification, synthetic approaches, and mechanisms of action” (Eur J Med Chem, 2022)
